Measured values from ChEMBL document CHEMBL1127385, “Synthesis and diuretic activity of alkyl- and arylguanidine analogs of N,N'-dicyclohexyl-4-morpholinecarboxamidine in rats and dogs” (J Med Chem, 1994).

How the values were obtained:
[1] = test system: Rattus norvegicus; experiment: Total electrolytic excretion of sodium in urine of rats after peroral administration of 28.2 uM/Kg of drug; type: ADME, organism-based; conditions: in vivo, po
[2] = test system: Rattus norvegicus; experiment: Tested for the diuretic activity by measuring the urinary volume after peroral administering 28.2 uM/Kg of drug in rats; type: ADME, organism-based, Urine; conditions: in vivo, po
[3] = test system: Rattus norvegicus; experiment: Ratio of Total electrolytic excretion of sodium and potassium in urine of rats after peroral administration of 28.2 uM/Kg of drug; type: ADME, organism-based; conditions: in vivo, po
[4] = test system: Rattus norvegicus; experiment: Total electrolytic excretion of chlorine in urine of rats after peroral administration of 282 uM/Kg of drug; type: ADME, organism-based; conditions: in vivo, po
[5] = test system: Rattus norvegicus; experiment: Total electrolytic excretion of potassium in urine of rats after peroral administration of 84.5 uM/Kg of drug; type: ADME, organism-based; conditions: in vivo, po
[6] = test system: Rattus norvegicus; experiment: Tested for the diuretic activity by measuring the urinary volume after peroral administering 282 uM/Kg of drug in rats; type: ADME, organism-based, Urine; conditions: in vivo, po
[7] = test system: Rattus norvegicus; experiment: Total electrolytic excretion of chlorine in urine of rats after peroral administration of 28.2 uM/Kg of drug; type: ADME, organism-based; conditions: in vivo, po
[8] = test system: Rattus norvegicus; experiment: Total electrolytic excretion of potassium in urine of rats after peroral administration of 282 uM/Kg of drug; type: ADME, organism-based; conditions: in vivo, po
[9] = test system: Rattus norvegicus; experiment: Total electrolytic excretion of chlorine in urine of rats after peroral administration of 84.5 uM/Kg of drug; type: ADME, organism-based; conditions: in vivo, po
[10] = test system: Rattus norvegicus; experiment: Ratio of Total electrolytic excretion of sodium and potassium in urine of rats after peroral administration of 84.5 uM/Kg of drug; type: ADME, organism-based; conditions: in vivo, po
[11] = test system: Rattus norvegicus; experiment: Total electrolytic excretion of potassium in urine of rats after peroral administration of 28.2 uM/Kg of drug; type: ADME, organism-based; conditions: in vivo, po
[12] = test system: Rattus norvegicus; experiment: Tested for the diuretic activity by measuring the urinary volume after peroral administering 84.5 uM/Kg of drug in rats; type: ADME, organism-based, Urine; conditions: in vivo, po
[13] = test system: Rattus norvegicus; experiment: Total electrolytic excretion of sodium in urine of rats after peroral administration of 84.5 uM/Kg of drug; type: ADME, organism-based; conditions: in vivo, po
[14] = test system: Rattus norvegicus; experiment: Ratio of Total electrolytic excretion of sodium and potassium in urine of rats after peroral administration of 282 uM/Kg of drug; type: ADME, organism-based; conditions: in vivo, po
[15] = test system: Rattus norvegicus; experiment: Total electrolytic excretion of sodium in urine of rats after peroral administration of 282 uM/Kg of drug; type: ADME, organism-based; conditions: in vivo, po
[16] = test system: Rattus norvegicus; experiment: Ratio of Total electrolytic excretion of sodium and potassium in urine of rats after peroral administration of 84.7 uM/Kg of drug; type: ADME, organism-based; conditions: in vivo, po
[17] = test system: Rattus norvegicus; experiment: Tested for the diuretic activity by measuring the urinary volume after peroral administering 84.7 uM/Kg of drug in rats; type: ADME, organism-based, Urine; conditions: in vivo, po
[18] = test system: Canis familiaris; experiment: Tested for the diuretic activity by measuring the urinary volume after intravenous administering 8.47 uM/Kg of drug in dogs; type: ADME, organism-based, Canis lupus familiaris, Urine; conditions: dog, in vivo
[19] = test system: Rattus norvegicus; experiment: Total electrolytic excretion of chlorine in urine of rats after peroral administration of 28.22 uM/Kg of drug; type: ADME, organism-based; conditions: in vivo, po
[20] = test system: Canis familiaris; experiment: Total electrolytic excretion of chlorine in urine of dogs after intravenous administration of 8.47 uM/Kg of drug; type: ADME, organism-based, Canis lupus familiaris; conditions: dog, in vivo
[21] = test system: Rattus norvegicus; experiment: Total electrolytic excretion of potassium in urine of rats after peroral administration of 84.7 uM/Kg of drug; type: ADME, organism-based; conditions: in vivo, po
[22] = test system: Rattus norvegicus; experiment: Total electrolytic excretion of potassium in urine of rats after peroral administration of 28.22 uM/Kg of drug; type: ADME, organism-based; conditions: in vivo, po
[23] = test system: Rattus norvegicus; experiment: Ratio of Total electrolytic excretion of sodium and potassium in urine of rats after intravenous administration of 8.47 uM/Kg of drug; type: ADME, organism-based; conditions: in vivo
[24] = test system: Rattus norvegicus; experiment: Total electrolytic excretion of sodium in urine of rats after peroral administration of 84.7 uM/Kg of drug; type: ADME, organism-based; conditions: in vivo, po
[25] = test system: Canis familiaris; experiment: Total electrolytic excretion of potassium in urine of dogs after intravenous administration of 8.47 uM/Kg of drug; type: ADME, organism-based, Canis lupus familiaris; conditions: dog, in vivo
[26] = test system: Rattus norvegicus; experiment: Total electrolytic excretion of chlorine in urine of rats after peroral administration of 84.7 uM/Kg of drug; type: ADME, organism-based; conditions: in vivo, po
[27] = test system: Canis familiaris; experiment: Total electrolytic excretion of sodium in urine of dogs after intravenous administration of 8.47 uM/Kg of drug; type: ADME, organism-based, Canis lupus familiaris; conditions: dog, in vivo

C1CCC(/N=C(/NC2CCCCC2)N2CCCCC2)CC1
Excretion Na+ [1]: 1.13 m equiv
V [2]: 6.5 mL
Ratio [3]: 4
Excretion Cl- [4]: 0.77 m equiv
Excretion K+ [5]: 0.35 m equiv
V [6]: 3.7 mL
Excretion Cl- [7]: 1.18 m equiv
Excretion K+ [8]: 0.21 m equiv
Excretion Cl- [9]: 1.46 m equiv
Ratio [10]: 3.8
Excretion K+ [11]: 0.29 m equiv
V [12]: 7.4 mL
Excretion Na+ [13]: 1.33 m equiv
Ratio [14]: 3.7
Excretion Na+ [15]: 0.76 m equiv

Fc1ccc(/N=C(/Nc2ccc(F)cc2)N2CCOCC2)cc1
Excretion Na+ [1]: 1.29 m equiv
V [2]: 9.2 mL
Ratio [16]: 4
Ratio [3]: 3.3
V [17]: 13.6 mL
Excretion Cl- [4]: 1.7 m equiv
V [18]: 58 mL
V [6]: 16.2 mL
Excretion Cl- [19]: 1.32 m equiv
Excretion K+ [8]: 0.24 m equiv
Excretion Cl- [20]: 5.7 m equiv
Excretion K+ [21]: 0.48 m equiv
Excretion K+ [22]: 0.39 m equiv
Ratio [23]: 5.7
Excretion Na+ [24]: 1.9 m equiv
Excretion K+ [25]: 1.1 m equiv
Excretion Cl- [26]: 1.82 m equiv
Ratio [14]: 8.5
Excretion Na+ [27]: 6 m equiv
Excretion Na+ [15]: 2.05 m equiv
